The record followed here is ChEMBL document CHEMBL1133302, “Use of proline bioisosteres in potential HIV protease inhibitors: phenylalanine-2-thiophenoxy-3-pyrrolidinone: synthesis and anti-HIV evaluation” (Bioorg Med Chem Lett, 2000).

Test [1] concerns MT4. The test can be described thus: CC50 value was measured as concentration required to cause 50% death of uninfected MT-4 cells. In kind it is functional. To be noted: Homo sapiens.
Test [2] has as its system MT4. Nature of the test: EC50 value was measured as concentration required to inhibit syncytia formation by 50% in MT-4 cells; NA-Nonactive at nontoxic concentration. In kind it is functional, cell-based, Homo sapiens.
Test [3] concerns the target T1, Human immunodeficiency virus type 1 protease (Human immunodeficiency virus 1, UniProt Q72874). The test can be described thus: Compound was evaluated for the inhibition of HIV-1 protease.
The test system of test [4] is MT4. Nature of the test: EC50 value was measured as concentration required to inhibit syncytia formation by 50% in MT-4 cells. It counts as functional, cell-based. To be noted: Homo sapiens.
The nature of test [5]: Selective index is the ratio of CC50 to that of EC50 (CC50/EC50). It counts as functional.
The target in test [6] is T1, Human immunodeficiency virus type 1 protease. The test can be described thus: Compound was evaluated for the inhibition of HIV-1 protease; NA-Nonactive at nontoxic concentration.

The term CC50 denotes the concentration that lowers cell viability or growth by half. High values mean better tolerance by the cells, low ones harm at low concentration. In general, EC50 refers to the concentration needed to bring the measured effect to its halfway point. A high value points to weaker potency. For orientation: IC50 means the concentration that inhibits the measured activity by half. In test [1], `COc1ccc(C[C@H](NC(=O)OC(C)(C)C)C(=O)N2CCC(=O)[C@H]2Sc2ccccc2)cc1` showed a CC50 of 50 µM. Further, the EC50 result in test [2] is recorded as “Not Active”. The 50% inhibitory concentration (IC50) in test [3] came out at 10 µM.

In test [1], `CC(C)(C)OC(=O)N[C@@H](Cc1ccccc1)C(=O)N1CCC(=O)[C@H]1Sc1ccccc1` displayed a half-maximal cytotoxic concentration (CC50) greater than 100 µM. In addition, a half-maximal effect in test [4] (EC50) was put at 1 µM. In test [3], this compound returned an IC50 of 0.008 µM. Further, the SI in test [5] was greater than 100.

In test [1], `O=C(N[C@@H](Cc1ccccc1)C(=O)N1CCC(=O)C1Sc1ccccc1)c1ccc2ccccc2n1` (some centres undefined) registered a CC50 of 50 µM. The concentration for a half-maximal effect (EC50) entry in test [2] is on record as “Not Active”. This compound also returned an IC50 in test [3] of 5 µM.

Regarding `CC(C)(C)OC(=O)N[C@@H](Cc1ccccc1)C(=O)N1CCC(=O)[C@@H]1Sc1ccccc1`, in test [1], the CC50 came to 100 µM. This compound also gave an EC50 in test [4] of 50 µM. In test [3], this compound came in with a concentration for half-maximal inhibition (IC50) of 1 µM. Moreover, the SI in test [5] stood at 2.

On to `CC(C)(C)OC(=O)N[C@@H](Cc1ccc(OCc2ccccc2)cc1)C(=O)N1CCC(=O)[C@H]1Sc1ccccc1`, for which the midpoint of cytotoxicity in test [1], the CC50, lay at 50 µM. Besides, in test [4], the concentration giving a half-maximal response (EC50) worked out at 0.1 µM. The compound further displayed an IC50 in test [3] of 0.02 µM. Also, in test [5], the SI worked out at 500.

Turning to `COc1ccc(C[C@H](NC(=O)OC(C)(C)C)C(=O)N2CCC(=O)[C@@H]2Sc2ccccc2)cc1`, the CC50 in test [1] was greater than 100 µM. The 50% effective concentration (EC50) result in test [2] is recorded as “Not Active”. This compound also yielded an IC50 in test [3] of 10 µM.

In turn, `O=C(N[C@@H](Cc1ccccc1)C(=O)N1CCC(=O)C1Sc1ccccc1)c1cccnc1` (some centres undefined) showed a cytotoxic concentration (CC50) in test [1] of 50 µM. This compound yielded an EC50 in test [4] of 1 µM. Further, the IC50 in test [3] worked out at 0.1 µM. The SI in test [5] was 50.

Compound `CC(C)(C)OC(=O)N[C@@H](Cc1ccc(OCc2ccccc2)cc1)C(=O)N1CCC(=O)[C@@H]1Sc1ccccc1` yielded a CC50 in test [1] of 10 µM. Moreover, the concentration giving a half-maximal response (EC50) entry in test [2] is listed as “Not Active”. In test [3], the midpoint of inhibition, the IC50, lay at 0.02 µM.

As for `CC(C)(C)OC(=O)NC(Cc1ccccc1)C(=O)N1CCC(=O)C1Sc1ccccc1` (racemic), the CC50 in test [1] was greater than 100 µM. In addition, the EC50 result in test [2] is on record as “Not Active”. In test [6], the IC50 entry is “Not Active”.

As for `CC(C)(C)OC(=O)N[C@@H](Cc1ccc(O)cc1)C(=O)N1CCC(=O)[C@H]1Sc1ccccc1`, the CC50 in test [1] worked out at 50 µM. The compound further came in with an EC50 in test [4] of 0.1 µM. Besides, the IC50 in test [3] stood at 0.026 µM. In addition, the SI in test [5] came out at 500.

Compound `CC(C)(C)OC(=O)N[C@@H](Cc1ccc(O)cc1)C(=O)N1CCC(=O)[C@@H]1Sc1ccccc1` yielded a half-maximal cytotoxic concentration (CC50) in test [1] greater than 100 µM. Further, in test [4], the EC50 was 50 µM. The compound also registered a half-maximal inhibitory concentration (IC50) in test [3] of 0.025 µM. For the same compound, in test [5], the SI is greater than 2.
